Data on 22 compounds can be found in paper doi:10.1101/2025.03.31.646301v1, “Discovery of Tankyrase scaffolding inhibitor specifically targeting the ARC4 peptide binding domain” (biorxiv, 2025).

In general, IC50 refers to the midpoint of a concentration-inhibition curve.

Assay [1] deals with T1, TNKS2 ARC4 (Homo sapiens, UniProt Q9H2K2).
T1 construct: ankyrin repeat cluster 4 domain; FRET: 6xHis-mCerulean (CFP) fusion; DSF, NMR, crystal: MBP and His tag cleaved by TEV, residues 487-649 printed for crystal; E. coli BL21(DE3)
T1 sequence (Q9H2K2 487-649): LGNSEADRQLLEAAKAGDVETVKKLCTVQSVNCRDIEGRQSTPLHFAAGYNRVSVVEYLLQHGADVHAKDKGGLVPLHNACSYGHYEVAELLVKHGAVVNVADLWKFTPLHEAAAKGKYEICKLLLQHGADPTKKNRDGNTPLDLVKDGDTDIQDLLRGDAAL
Briefly: biochemical. More on the design: FRET competition: inhibition of CFP-ARC domain binding to YFP-REAGDGEE peptide. The procedure: The FRET assay for discovery of chemical probes targeting ARC and SAM domains of tankyrases was developed in a previous study.[52] The high-throughput screening of the EU-OPENSCREEN Pilot and Commercials Diversity libraries was performed at the Norwegian Centre for Molecular Biosciences and Medicine (NCMBM, formerly NCMM). For the primary screen, assay-ready plates containing library compound sufficient to reach a screening concentration of 30 µM were prepared on black shallow-well 384-microwell plates (Greiner bio-one small volume, high base, non-binding microplate black, 784900 or Fisherbrand™ 384-Well ShallowWell Polypropylene Microplates, 12-566-617, Fisher Scientific) using 30 nL of 10 mM DMSO compound stocks dispensed with an Echo 550 [compound left out] handler (Labcyte). Each screening plate also contained DMSO controls at equivalent volumes to compounds for positive, negative, and assay buffer blank controls, 16 wells per control type. Stock solutions of CFP-TNKS2 ARC4 and YFP-REAGDGEE or CFP-SAM(E897K) and YFP-SAM(Y920A) were combined and diluted in assay buffer (10 mM BTP pH 7, 3% weight/volume PEG 20000, 0.01% volume/volume Triton, 0.5 mM TCEP) to final concentrations of 100 nM and 200 nM or 150 and 300 nM, respectively. The positive control was prepared by addition of guanidine hydrochloride to the above assay buffer to a final concentration of 1M. A volume of 10 µL of these solutions was added to each well of the assay-ready plates using a BioTek MultiFlo FX dispenser (Agilent) equipped with 5 uL dispensing cassettes for the peristaltic pumps (screening solution and control) and a syringe pump (assay buffer blank). After [compound left out] handling, plates were incubated at RT for 30 minutes before reading fluorescence using a BioTek Synergy Neo2 plate reader (Agilent) with Gen5 software (version 3.02) at four wavelength combinations – 410/477, 410/527, 430/477, 430/527 – each with an excitation bandwidth of 20 nm and an emission bandwidth of 10 nm; a gain setting of 135; a “Normal” read speed with 10 msec delay after plate movement, 50 measurements per data point, low lamp energy, and a “Standard” dynamic range (0 to 99,999); and a read height of 4.5 mm. A SAR investigation was conducted with purchased and synthesized analogues of 1 through FRET-based potency measurements and DSF assay with TNKS2 ARC4 (Table 2, Table S2). All the compounds commercially acquired underwent quality control. […] Changes to the length of the aliphatic chain at R[3] greatly impacts both potency and protein stabilization. […] The diethylamino-based substituent at R[3] […] Compounds 25 and 26 further indicate that the presence of tertiary amine at R[3] is not necessary to achieve binding.

In assay [2] the target is T1, TNKS2 ARC4. More on the design: DSF thermal shift of TNKS2 ARC4, stabilization over DMSO control. Particulars: binder. The source says:
Given the notable stabilization of the pyrrolone-based compounds from the Commercials Diversity collection, we decided to focus on their common scaffold for compound optimization. Pyrrolone is indeed a versatile moiety that is largely employed for the design of compounds with a variety of biological effects.[55] The nine primary hits were acquired from commercial suppliers, they underwent quality control, additional DSF validation and determination of potency through FRET-based IC50 measurements (Table 1). All the tested compounds include a benzodioxane moiety (R[1]), a [compound left out] group with substitutions in the para position (R[2]), and an R[3] group with an aliphatic character and a tertiary amine. […] In addition, all molecules, except for 7, have IC50 values below 100 µM. Among the nine molecules, 1 performed the best in terms of stabilization of TNKS2 ARC4 and potency. […] In the same position, the presence of a hydrophobic methyl group (3, 4), other halogen substituents (5) and alkoxy groups (6–9) is also tolerated, even if not optimal. […] A SAR investigation was conducted with purchased and synthesized analogues of 1 through FRET-based potency measurements and DSF assay with TNKS2 ARC4 (Table 2, Table S2). All the compounds commercially acquired underwent quality control. […] Changes to the length of the aliphatic chain at R[3] greatly impacts both potency and protein stabilization. […] The diethylamino-based substituent at R[3] […] Compounds 25 and 26 further indicate that the presence of tertiary amine at R[3] is not necessary to achieve binding. […] 5 Figure S2. DSF assay results for validation of primary hits identified in the EU-OPENSCREEN Commercials Diversity Library. (A) and (B) show DSF assay validation measurements of TNKS2 ARC4 with primary hits from the Commercial Diversity Library. Compounds are tested at 100 μM. They are named after their EU-OPENSCREEN identity codes and the identities are available for consultation on ECBD. 1,2 (A) and (B) show results from two independent experiments. For each experiment, each compound was tested with a single measurement, while controls (TNKS2 ARC4 with 100 μM optimized peptide, TNKS2 ARC4 with 100 μM DMSO) are studied in at least four replicates and errors are shown. Moreover, stabilization over the control (TNKS2 ARC4 with DMSO) is indicated (ΔTm °C). […] It was not possible to measure the melting curve of TNKS2 ARC4 in presence of EOS21552, EOS54043, EOS54043.

Read-outs that look alike come from different tables or passages of the source.

Regarding `O=C(C1=C(O)C(=O)N(CCCN2CCNCC2)C1c1cccc(O)c1)c1ccc2c(c1)OCCO2` (centres unmarked) [S2], the IC50 on TNKS2 ARC4 [1] was 302 µM. For the same compound, the “ΔTm ± SD (°C)” value at TNKS2 ARC4 [2] is 0.80 ± 0.16 °C.
For the compound `N=C(N)NCCCN1C(=O)C(O)=C(C(=O)c2ccc3c(c2)OCCO3)C1c1ccccc1` (centres unmarked) [S3], the IC50 at TNKS2 ARC4 [1] stood at 133 µM. The “ΔTm ± SD (°C)” value at TNKS2 ARC4 [2] was 1.20 ± 0.19 °C.
Regarding `N=C(N)NCCCN1C(=O)C(O)=C(C(=O)c2ccc3c(c2)OCCO3)C1c1cccc(O)c1` (centres unmarked) [S5], on TNKS2 ARC4 [1], the IC50 was found to be 121 µM. Moreover, the “ΔTm ± SD (°C)” value on TNKS2 ARC4 [2] stood at 1.31 ± 0.17 °C.
With `CN(C)CCCN1C(=O)C(O)=C(C(=O)c2ccc3c(c2)oc(=O)n3C)C1c1ccccc1` (centres unmarked) [compound 27, 27], the half-inhibitory concentration (IC50) on TNKS2 ARC4 [1] (inhibitor) is more than 1000 µM. Moreover, the “ΔTm ± SD (°C)” value at TNKS2 ARC4 [2] was -0.03 ± 0.11 °C.
In the case of `Cc1ccccc1COc1ccc(C(=O)C2=C(O)C(=O)N(CCCN(C)C)C2c2cccc(O)c2)cc1` (centres unmarked) [compound 28, 28], the IC50 at TNKS2 ARC4 [1] (inhibitor) was more than 1000 µM. Besides, at TNKS2 ARC4 [2], the “ΔTm ± SD (°C)” value was -0.20 ± 0.22 °C.
In the case of `COc1ccc(C(=O)C2=C(O)C(=O)N(CCCN3CCOCC3)C2c2ccccc2)cc1OC` (centres unmarked) [compound 29, 29], the IC50 at TNKS2 ARC4 [1] is more than 1000 µM. On TNKS2 ARC4 [2], the “ΔTm ± SD (°C)” value was 0.14 ± 0.25 °C.
The corresponding values for `COc1ccc(C(=O)C2=C(O)C(=O)N(CCCN3CCOCC3)C2c2ccc(C)cc2)cc1OC` (centres unmarked) [compound 30, 30] are more than 1000 µM and 0.12 ± 0.25 °C.
Taken in the same sequence, the figures for `CCN(CC)CCCN1C(=O)C(O)=C(C(=O)c2ccc(OC)cc2)C1c1ccccc1` (centres unmarked) [compound 31, 31] were 136 µM and 1.46 ± 0.52 °C.
Regarding `COc1cccc(C(=O)C2=C(O)C(=O)N(CCCN3CCOCC3)C2c2ccccc2)c1` (centres unmarked) [compound 32, 32], at TNKS2 ARC4 [1], the IC50 is more than 1000 µM. The “ΔTm ± SD (°C)” value on TNKS2 ARC4 [2] stood at 0.23 ± 0.25 °C.
The corresponding values for `COc1cccc(C(=O)C2=C(O)C(=O)N(CCCN3CCOCC3)C2c2ccc(C)cc2)c1` (centres unmarked) [compound 33, 33] are more than 1000 µM and 0.36 ± 0.33 °C.
Taken in the same sequence, the figures for `Cc1cc(C(=O)C2=C(O)C(=O)N(CCCN(C)C)C2c2ccc(O)cc2)ccc1OC(C)C` (centres unmarked) [compound 34, 34] were more than 1000 µM and -0.08 ± 0.41 °C.
For `COCCN1C(=O)C(O)=C(C(=O)c2ccc3c(c2)OCCO3)C1c1cccc(O)c1` (centres unmarked) [compound 35, 35], on TNKS2 ARC4 [1], the IC50 came to 305 µM. Moreover, the “ΔTm ± SD (°C)” value on TNKS2 ARC4 [2] stood at 0.82 ± 0.38 °C.
The corresponding values for `O=C(C1=C(O)C(=O)N(Cc2ccccc2)C1c1cccc(O)c1)c1ccc2c(c1)OCCO2` (centres unmarked) [compound 36, 36] are 23 µM and 0.45 ± 0.25 °C.
The corresponding values for `Cc1ccc(C2C(C(=O)c3ccc4c(c3)OCCO4)=C(O)C(=O)N2Cc2ccccc2)cc1` (centres unmarked) [compound 37, 37] are 71 µM and 0.51 ± 0.31 °C.
`Cc1ccc(C2C(C(=O)c3ccc4c(c3)OCCO4)=C(O)C(=O)N2CCN(C)C)cc1` (centres unmarked) [compound 38, 38]: at TNKS2 ARC4 [1] (inhibitor), the IC50 worked out at 493 µM. The “ΔTm ± SD (°C)” value on TNKS2 ARC4 [2] came to 0.67 ± 0.28 °C.
Consider `CCN(CC)CCN1C(=O)C(O)=C(C(=O)c2ccc3c(c2)OCCO3)C1c1ccccc1` (centres unmarked) [compound 39, 39], for which the half-inhibitory concentration (IC50) at TNKS2 ARC4 [1] (inhibitor) amounted to 255 µM. For the same compound, on TNKS2 ARC4 [2], the “ΔTm ± SD (°C)” value is 1.05 ± 0.36 °C.
Regarding `COCCCN1C(=O)C(O)=C(C(=O)c2ccc3c(c2)OCCO3)C1c1ccccc1` (centres unmarked) [compound 40, 40], the 50% inhibitory concentration (IC50) at TNKS2 ARC4 [1] (inhibitor) stood at 360 µM. In addition, the “ΔTm ± SD (°C)” value at TNKS2 ARC4 [2] is 0.47 ± 0.31 °C.
As to `O=C(C1=C(O)C(=O)N(CCc2ccccc2)C1c1ccccc1)c1ccc2c(c1)OCCO2` (centres unmarked) [compound 41, 41], the IC50 at TNKS2 ARC4 [1] (inhibitor) is 65 µM. The “ΔTm ± SD (°C)” value on TNKS2 ARC4 [2] came to 0.91 ± 0.31 °C.
Take `O=C(C1=C(O)C(=O)N(CCCN2CCOCC2)C1c1ccccc1)c1ccc2c(c1)OCCO2` (centres unmarked) [compound 42, 42]: the 50% inhibitory concentration (IC50) at TNKS2 ARC4 [1] was found to be 101 µM. In addition, the “ΔTm ± SD (°C)” value at TNKS2 ARC4 [2] came to 2.26 ± 0.34 °C.
Taken in the same sequence, the figures for `O=C(C1=C(O)C(=O)N(CCCN2CCOCC2)C1c1ccc(F)cc1)c1ccc2c(c1)OCCO2` (centres unmarked) [compound 43, 43] were 114 µM and 1.61 ± 0.37 °C.
The corresponding values for `O=C(C1=C(O)C(=O)N(Cc2ccncc2)C1c1ccncc1)c1ccc2c(c1)OCCO2` (centres unmarked) [compound 44, 44] are more than 1000 µM and 0.21 ± 0.26 °C.
Consider `COc1cc(C2C(C(=O)c3ccc4c(c3)OCCO4)=C(O)C(=O)N2CCCN2CCOCC2)ccc1O` (centres unmarked) [compound 45, 45], for which the IC50 at TNKS2 ARC4 [1] (inhibitor) is 78 µM. Moreover, the “ΔTm ± SD (°C)” value at TNKS2 ARC4 [2] is 2.32 ± 0.33 °C.
